# Experimental data from a melting point compilation (Tetko et al.; mined from patent text by program, amines drawn as free bases though some values may be those of a salt).
row,melting point,Structure (SMILES)
1,211 to 213 °C,Cc1cccc(C(=O)Nc2nc(=O)c3ccccc3[nH]2)c1
2,109 to 111 °C,COc1ccc(C(=O)NCCc2cccs2)cc1
3,151 to 152 °C,CN1CCN(c2cccc3c2C[C@H](NC(=O)Cc2ccccc2)CC3)CC1
4,127 to 128 °C,Cc1nc(N2CCN(CCCc3ccccc3)C2=O)sc1C(=O)NCc1cccnc1
5,124 to 126 °C,O=S(=O)(Cc1cccs1)c1ncc(Br)cn1
6,254 to 256 °C,CN(C(=O)c1ccc(Nc2nccc(Nc3ccc(C(F)(F)F)cc3)n2)cc1)C1CCOCC1
7,111 to 112 °C,COc1cc(NCCCCCC(=O)NCC(C)C)c2nccc(C)c2c1
8,180 to 182 °C,CCCSc1ncc(C(=O)N[C@@H](Cc2ccc(O)cc2)C(=O)OC)n1Cc1ccccc1Cl
9,190 to 194 °C,CN1C(=O)CCCc2cc(Nc3ncc(Cl)c(Nc4ccccc4C(=O)NCCO)n3)ccc21
10,148 to 151 °C,CC(COc1ccc(-n2cncn2)cc1)(NS(=O)(=O)Cc1ccccc1)C(=O)O (centres undefined)
11,120 °C,CCC(O)(CO)c1ccc(OCc2ccc3ccccc3c2)c(OC)c1 (centres undefined)
12,58 to 60 °C,C=C(CCCl)C(=O)c1ccc(OC)c(Cl)c1Cl
13,125 to 127 °C,COc1ccc2sc(S(N)(=O)=O)cc2c1
14,95 °C,CCOC(=O)CCNC(=O)Nc1ccncc1
15,64 to 66 °C,C=CCCN(c1ccc(OC)cc1)S(=O)(=O)c1c(F)c(F)c(F)c(F)c1F
16,73 °C,COc1ccc(C(=O)Sc2ccccn2)cc1
17,156 °C,COc1ccc(N2CCSC2=N)c([N+](=O)[O-])c1
18,86 to 90 °C,CCCCc1oc2ccc(N)cc2c1C(=O)c1ccc(OCCCO)cc1

row,melting point,Structure (SMILES)
1,150 to 152 °C,COc1nc2ccc(Br)cc2c2c1Cc1ccccc1-2
2,132 to 134 °C,COc1ccc(NN=C(Sc2cccc(Cl)c2)C(C)=O)cc1
3,168 to 170 °C,CCOc1nc2cccc(C(=O)OC)c2n1Cc1ccc(-c2ccccc2C#N)cc1
4,200 to 201 °C,CC(=O)Nc1c(C(=O)c2ccccc2)[nH]c2ccc(Cl)cc12
5,161 to 163 °C,COc1ccc(Nc2nc(N)c3[nH]c(C)cc3n2)cc1
6,178 °C,Nc1sccc1C(=O)c1ccc(F)cc1
7,120 to 122 °C,CCCc1c(OCCCOc2cccc(N)c2C#N)ccc(C(C)=O)c1O
8,203 to 206 °C,O=C(Nc1c[nH]nc1C(=O)NCC(F)(F)F)c1ccccc1
9,114 to 115 °C,O=C(O)CC1c2ccccc2COc2ccccc21 (centres undefined)
10,122 to 124 °C,CCN(CC)C(=O)c1ccc2cc(C(=O)O)ccc2c1
11,179 to 181 °C,CCOC(=O)c1cnc2c(NC(=O)c3c(Cl)cccc3Cl)cccc2c1CSc1ccncc1
12,47 to 48 °C,COC(=O)c1cccc(OCc2ccc3ccccc3c2)c1C
13,216 to 217 °C,C=C1CCCN(C(=O)c2ccc(NC(=O)c3ccccc3C)cc2)c2ccccc21
14,77 to 78 °C,O=C1CCCc2ccc(OCc3cccc(Cl)c3)cc21
15,96 to 100 °C,COc1ccc(C(O)Cc2ccncc2)c2c1OCC2C (centres undefined)
16,126 °C,N#Cc1cccc(C(=O)c2ccc(S)cc2)c1
17,41.6 °C,C=CCOc1ccc(C#N)cc1
18,250 to 252 °C,CC(CC(=O)O)C(=O)c1ccc(-n2ccc(=O)cc2)cc1 (centres undefined)

# The next lines start with the compound.
row,Structure (SMILES),melting point
1,CC(C)(CO)NS(=O)(=O)c1cncc(Br)c1,112 °C
2,O=C(Cl)c1c(-c2ccccc2)nn2c1-c1ccccc1CC2,109 to 110 °C
3,CS(=O)(=O)c1ccc(Br)cc1Br,124 to 126 °C
4,O=C(O)Cn1cc(Cl)c(-c2cc(Cl)cc(Cl)c2)n1,182 °C
5,CCCc1nc2c(N)nc3cccnc3c2n1CC1(O)CCCCC1,209 to 211 °C
6,O=C(O)COc1cccc2c1CCc1sc(S(=O)(=O)CCCC(c3ccccc3)c3ccccc3)nc1-2,180 to 181 °C
7,COC(=O)c1cccc(-c2c(C#N)nn(-c3c(Cl)cc(C(F)(F)F)cc3Cl)c2N)c1,214 to 216 °C
8,O=C(O)C1CCCc2cc(C3CCCCC3)c(Cl)cc21 (centres undefined),119 to 120 °C
9,COC(=O)c1cc(=O)c(O)co1,184 to 186 °C
10,CC(=O)SCC(C)C(=O)N(CC(=O)O)Cc1ccco1 (centres undefined),140 to 141 °C
11,CC(C#N)=NC(C#N)=C(N)C#N,220 to 221 °C
12,CC1CCC(N2c3ccccc3Oc3ccccc32)=N1 (centres undefined),135 to 137 °C
13,CCN(CC)CCNc1ccc(CNc2ccccc2)c2sc3ccccc3c(=O)c12,133 to 135 °C
14,COc1c2c(cc3c1OCO3)C(=O)CN(C)C2,116 to 119 °C
15,CCCc1nn(C)c2c(=O)n(CCCc3cccc(OC(C)(C)C(=O)O)c3)c(C)nc12,78 to 80 °C
16,OCC12CO[C@@H](c3ccc(C(F)(F)F)cc3)N1[C@H](c1ccc(C(F)(F)F)cc1)OC2,120 °C
17,CCCc1cc(=O)oc2cc(O)c3c(c12)OC(C)(C)C=C3,190 to 192 °C
18,Cc1nc(N)c2nc(C)n(CCCNC(=O)C(C)C)c2c1C,178 to 179 °C
19,Cn1cc(C(=O)NCc2ccc(Cl)cc2)c(=O)c2cc(CN3CC=C(F)CC3)ccc21,221 to 223 °C
20,CCCc1cc(NCc2ccc(Cl)cc2)nc(SCC#N)n1,68 to 70 °C
21,NCc1cccc(Cn2ccc(OCc3ccc(F)cc3)c(Br)c2=O)c1,127 to 139 °C
22,COc1cc2cc(C=Cc3ccccc3Cl)[nH]c2cc1OCc1ccccc1,192 to 194 °C
23,Clc1ccc(Nc2nc3ccccc3c3[nH]c(C4CCCCCC4)nc23)cc1Cl,236 to 238 °C

row,Structure (SMILES),melting point
1,COC(=O)C1CCC2(C)C(=CC(=O)C3C2CCC2(C)C(C(=O)OC)CCC32)C1 (centres undefined),167 to 169 °C
2,Cc1noc(-c2cccc(NC(=O)N[C@@H]3c4cc(C#N)ccc4OC(C)(C)[C@H]3O)c2)n1,157 to 161 °C
3,Nc1cccc(-c2ccc3nncn3n2)c1,225 °C
4,FC(F)(F)c1ccc2c(c1)Sc1ccccc1NC2=S,236 to 239 °C
5,O=Cc1cnc(-c2ccccc2Cl)s1,95 to 97 °C
6,O=c1c2ccccc2[nH]n1-c1ccccc1F,156 to 159 °C
7,C[Si](C)(C)ON1C(=O)CCC1=O,55 to 57 °C
8,COC1C(O)CCC(O)(CSc2ccccc2)C1C1(C)OC1CC=C(C)C (centres undefined),94 to 96 °C
9,COc1cc2ncc(C#N)c(Nc3ccccc3SC)c2cc1OC,245 to 247 °C
10,CCOC(=O)C=C(NC(=O)Nc1cc(OC(C)C)c(Cl)cc1F)C(F)(F)F,144 to 146 °C
11,CN(c1ccc(F)c(C(F)(F)F)c1)c1nccc(-c2ccc(F)c(C(F)(F)F)c2)n1,83 to 84 °C
12,O=[N+]([O-])c1cn2c(n1)O[C@@H](COc1ccc(N3CCC(CCc4ccc(OC(F)(F)F)cc4)CC3)cc1)C2,209 to 212 °C
13,NS(=O)(=O)c1ccc(NC(=O)CCl)cc1Cl,214 to 216 °C
14,NS(=O)(=O)c1ccc(-n2nc(C(F)(F)F)cc2-c2ccc(-c3ncco3)cc2)cc1,215 to 217 °C
15,ON=C1CCn2c(-c3ccc(Br)cc3)nc3c(Cl)ccc1c32,> 250 °C
16,O=C(OCc1ccccc1)N1CCN2c3ccc([N+](=O)[O-])cc3OCC2C1 (centres undefined),138 to 140 °C
17,Cc1ccc2c(c1)Oc1ncc([N+](=O)[O-])cc1C(=O)N2C,197 to 198 °C
18,Nc1ccc(S(=O)(=O)N2CCCC(c3ccc(Cl)c(C(F)(F)F)c3)=N2)cc1,205 to 206 °C
19,CC(C1CC1)N(CCCc1c[nH]c2ccc(F)cc12)C1COc2c(F)ccc(C(N)=O)c2C1 (centres undefined),124 °C
20,NC(=O)[C@H]1CN(c2ccc(C3CCOCC3)c(F)c2)C(=O)O1,153 to 156 °C
21,COC(=O)C1=CC(C(=O)c2cc(Br)cc(Br)c2O)=CN2CCc3c([nH]c4ccccc34)C12C(=O)OC (centres undefined),131 °C
22,CN1C(=O)CCC1(O)c1ccc(Cl)c(S(=O)(=O)NCc2ccccc2Cl)c1 (centres undefined),144 to 145 °C
23,CNC(=O)N1CCC(c2nn(-c3ccccc3)c3cc(F)ccc23)CC1,163 to 165 °C

row,Structure (SMILES),melting point
1,CC(C)C(=NO)c1ccc(Br)cc1,126 to 136 °C
2,CCC(=O)C(C#N)Cc1cc(Cl)cc(Cl)c1 (centres undefined),59 to 60 °C
3,CN(C)c1cc2c(cc1C(F)(F)F)NC(=O)CC(c1cccc(-c3ccncc3)c1)=N2,202 °C
4,CC(C)NC1=NS(=O)(=O)c2sc(Cl)cc2N1,281 to 283 °C
5,CC(=O)Nc1cc(Cn2c(C(=O)c3cc(C)cc(C)c3)c(C(C)C)c(=O)[nH]c2=O)ccn1,244 to 245 °C
6,COc1cc(OC)c2c(=O)[nH]c(-c3cc(C)nc(C)c3)nc2c1,291 to 292 °C
7,NN=CNCC(=O)NC1CCCCC1,232 to 234 °C
8,CCC1(Cl)Cc2cc(OCCCC(=O)O)c(Cl)c(Cl)c2C1=O (centres undefined),123 to 124 °C
9,CC(=O)NCCN1CCCc2ccc(C)cc21,99 °C
10,Nc1ncccc1-c1nc2cc(-c3cccnc3)cnc2n1-c1ccc(CNS(=O)(=O)C2CC2)cc1,197 to 199 °C
11,CS(=O)(=O)c1ccc(-n2nc(C(F)(F)F)cc2-c2ccc(-c3cccs3)cc2)cc1F,75 to 76 °C
12,O=C(Nc1ccc(NCc2ccccc2)cc1)C(=O)N1CCC(Cc2ccccc2)CC1,126 to 128 °C
13,NNC(=S)NCc1ccc([N+](=O)[O-])cc1,196 to 198 °C
14,COc1cc(NC(=O)OC(C)(C)C)c(NC(=O)CC(=O)c2cccc(-n3ccnc3)c2)cc1-c1ccc(F)cc1C,99 to 102 °C
15,OCCn1cc(C(F)(F)F)nc1-c1ccc(O)cc1,186 to 188 °C
16,COC1=C(OC)C(=O)C2=C(CCC(CCOc3cccnc3)CC2)C1=O,80 to 82 °C
17,O=C(NC1CCCC1)c1ccc(F)c2c1CC(N(CCCc1c[nH]c3ccc(F)cc13)C1CCC1)CO2 (centres undefined),133 °C
18,O=C1NC(=O)c2ccccc2/C1=C/Nc1ccc2cn[nH]c2c1,> 300 °C
19,CCOC(=O)C1=Cc2cc(Br)ccc2N(C=O)CC1,150 to 152 °C
20,CCOC(=O)CCC(C#N)(c1ccccc1)C(C)C (centres undefined),82 to 84 °C
21,COC(=O)C1=C(CCc2ccccc2)NC(CC(=O)N2CCN(C)CC2)=C(C(=O)OC)C1c1ccccc1Cl (centres undefined),138 °C
22,CS(=O)(=O)c1ccc(-c2cnn(-c3cccc(Cl)c3)c(=O)c2Sc2ccccn2)cc1,110 to 114 °C
